The values that follow come from patent EP3150574B1, “AMANTADINE NITRATE COMPOUND HAVING A NEUROPROTECTIVE EFFECT AND PREPARATION AND MEDICAL USE THEREOF” (Guangzhou Magpie Pharmaceuticals Co., Ltd., priority 2014, dated 2015).

The experiment concerns primary cerebellum granule cells of rats. Briefly: Protective effects of compounds on primary cerebellum granule cells against glutamate-induced excitotoxic injury (MTT cell viability). Format: cell-based. Conditions: protective effect on rat's nerve cells, pre-protection 2 h, then for 24 h, absorbance at 570 nm.
Description: Isolated primary cerebellum granule cells of infant rats were inoculated in 96-well plates with 1.2×10^5/well by using 10% FBS + 25 mM KCl + 2 mM Glutamine + 1% of double-antibody BME medium. After 24 hours, cytarabine with a final concentration of 10 iM was added to inhibit the proliferation of neurogliocyte cells. After the day 4, glucose with the final concentration of 5 mM was added every four days to complement energy metabolism and water evaporation of cells. The materials were placed in a cell incubator (37 °C, 5% CO2) to be cultured for 10 days. […] After pre-protection for 2 h, 200 iM of glutamate was added to induce cell damage for 24h, and then MTT was added to culture for 4 h. The supernatant fraction was sucked, and 150 iL of DMSO was added to each well for dissolving. After blending with shaking, the light absorption values under 570 nm wavelength was measured with a microplate reader, and the viability of cells was calculated. Cell viability (%) = absorbance of different groups / absorbance of the normal control group × 100%.
Turning to `CC(CO[N+](=O)[O-])CC12CC3CC(N)(C1)CC(CC(C)CO[N+](=O)[O-])(C3)C2` (stereo not shown) [NM-012], the EC50 stood at 9.3 µM.

`NC12CC3CC(CCO[N+](=O)[O-])(C1)CC(CCO[N+](=O)[O-])(C3)C2` [NM-009]: the EC50 was found to be 5.2 µM. As for `CCC12CC3CC(N)(C1)CC(CCCO[N+](=O)[O-])(C3)C2` (stereo not shown) [NM-005], the EC50 was found to be 6.06 µM. With `CCC12CC3CC(N)(C1)CC(CO[N+](=O)[O-])(C3)C2` (stereo not shown) [NM-004], it took 8.12 µM to reach a half-maximal effect (EC50).
